Laboratory results: PubChem BioAssay (NCI)
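Five compound concentrations were applied to cells in 96-well plates for 48 hours; endpoints were derived by simple linear interpolation of the resulting dose-response curve. Abbreviation: GI50, concentration required for 50% inhibition of growth. TGI marks complete inhibition of growth.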

Assays:
Assay in all cases: NCI anticancer screen, dose series, 48 h
HCT-116 colon = tested on: HCT-116 colon
RPMI-8226 leukemia = tested on: RPMI-8226 leukemia
UO-31 renal = tested on: UO-31 renal
SNB-19 CNS = tested on: SNB-19 CNS
HOP-92 NSCLC = tested on: HOP-92 NSCLC
OVCAR-8 ovarian = tested on: OVCAR-8 ovarian
OVCAR-5 ovarian = tested on: OVCAR-5 ovarian
BT-549 breast = tested on: BT-549 breast
M14 melanoma = tested on: M14 melanoma
HL-60(TB) leukemia = tested on: HL-60(TB) leukemia

Row | SMILES | TGI (HCT-116 colon) [µM] | TGI (RPMI-8226 leukemia) [µM] | TGI (UO-31 renal) [µM] | TGI (SNB-19 CNS) [µM] | TGI (HOP-92 NSCLC) [µM] | TGI (OVCAR-8 ovarian) [µM] | TGI (OVCAR-5 ovarian) [µM] | TGI (BT-549 breast) [µM] | TGI (M14 melanoma) [µM] | TGI (HL-60(TB) leukemia) [µM] | GI50 (HCT-116 colon) [µM] | GI50 (UO-31 renal) [µM] | GI50 (M14 melanoma) [µM] | GI50 (HL-60(TB) leukemia) [µM] | GI50 (SNB-19 CNS) [µM] | GI50 (HOP-92 NSCLC) [µM] | GI50 (OVCAR-8 ovarian) [µM] | GI50 (OVCAR-5 ovarian) [µM] | GI50 (BT-549 breast) [µM] | GI50 (RPMI-8226 leukemia) [µM]
1 | C/C=C(/C)c1cnc(CC(C)C)c(=O)[nH]1 | > 100 | > 100 | > 100 | > 100 | > 100 | > 100 | > 100 | > 100 |  |  |  |  |  |  |  |  |  |  |  | 
2 | Nc1ccc(C(=O)CC2(O)C(=O)Nc3c(Cl)cc(Cl)cc32)cc1 (configuration not stated) | > 100 | > 100 | > 100 | > 100 | > 100 | > 100 | > 100 |  | > 100 | 78.5 |  |  |  |  |  |  |  |  |  | 
3 | COc1ccc(N2C(=O)C3c4[nH]c5ccccc5c4C4CCCCCCC4C3C2=O)cc1 (configuration not stated) | 15.3 | > 100 | 44.1 | 28.1 | 33.4 | 13 | > 100 |  | 37.4 | 74 |  |  |  |  |  |  |  |  |  | 
4 | CCOC(=O)c1c(-c2ccccc2)c(C(OC(c2ccccc2)c2c(-c3ccccc3)c(C(=O)OCC)n3ccccc23)c2ccccc2)c2ccccn12 (configuration not stated) | > 100 | > 100 | > 100 | > 100 |  | > 100 | > 100 |  | > 100 | > 100 |  |  |  |  |  |  |  |  |  | 
5 | CC(C)(C)n1cc(-c2ccnc(NCCCNS(=O)(=O)c3ccc(Br)cc3)c2)c(-c2cccc(O)c2)n1 | 2.6 |  | 3.89 | 4.37 | 3.43 | 6.88 | 3.5 | 2.98 | 3.29 | 7.49 | 1.31 | 1.66 | 1.78 | 2.72 | 2.11 | 1.56 | 2.43 | 1.87 | 1.5 | 
6 | COc1cc(C2c3cc4c(cc3[C@@H](N(C)C)[C@H]3COC(=O)C23)OCO4)cc(OC)c1O (some centres not stated) | > 100 | > 100 | > 100 |  | 68.1 | 80.1 | > 100 |  | > 100 | > 100 |  |  |  |  |  |  |  |  |  | 
7 | COc1ccccc1NC(=O)C1=C(C)NC(C)=C(C(=O)Nc2ccccc2OC)C1c1ccc(N(C)C)cc1 | 74.7 | 55.4 | > 100 | > 100 | 38.6 | 77.3 | > 100 |  | 69.7 | 40.7 |  |  |  |  |  |  |  |  |  | 
8 | COC(=O)C1Cc2c([nH]c3ccccc23)C(c2ccccc2O)N1Cc1ccccc1 (configuration not stated) | > 31.6 | > 100 | > 46.4 | > 31.6 | 43.5 | > 46.4 | > 46.4 |  | > 46.4 | > 46.4 |  |  |  |  |  |  |  |  |  | 
9 | CC1=NOC(=O)C1N=Nc1ccc(Br)c(C)c1 (configuration not stated) | 33.9 | 40.7 |  | 92.8 | 34.4 | 32.7 | 72 |  | 36.1 | 23.8 |  |  |  |  |  |  |  |  |  | 
10 | CN1C(=O)C2C=CC1C1CCC2N(C)C1=O (configuration not stated) | > 100 | > 100 | > 100 | > 100 | > 100 | > 100 | > 100 |  | > 100 | > 100 |  |  |  |  |  |  |  |  |  | 
11 | COC(=O)[C@]1(C)C(OC)=CC(=O)C2C1[C@H]1CCC[C@@H]21 (some centres not stated) | > 100 | > 100 | > 100 | > 100 | > 100 | > 100 | > 100 |  | > 100 | > 100 |  |  |  |  |  |  |  |  |  | 
12 | COC(=O)[C@H]1[C@H]2C[C@@H]3c4[nH]c5cc(OC)ccc5c4CCN3C[C@H]2C[C@@H](OC(=O)/C=C/c2cc(OC)c(OC)c(OC)c2)[C@@H]1OC | 9.57 | 85.1 | 33.5 | > 100 | 17.4 | 50.4 | 56.7 | 24.6 | 20 |  | 3.18 | 9.63 | 6.24 |  | 6.46 | 2.85 | 4.74 | 19.3 | 11.6 | 4.05
13 | CCOC(=O)c1c2c(n(Cc3ccccc3)c1C)-c1nc(Cc3ccccc3)[nH]c1C(=O)C2=O | 2.9 | 4.93 | 2.64 | 3.09 | 2.45 | 4.99 | 3.62 | 2.99 | 3.49 |  | 1.49 | 1.32 | 1.75 |  | 1.72 | 1.17 | 2.03 | 1.98 | 1.43 | 1.78
14 | COC(=O)C(CC(=O)c1c[nH]c2ccccc12)c1c[nH]c2ccccc12 (configuration not stated) | 31.6 | 44.8 | 39.3 |  |  | 65 | 42.1 |  | 41.9 | 49.4 |  |  |  |  |  |  |  |  |  | 
15 | Clc1ccc2c(c1)[nH]c1c2nc2sccn21 | > 100 | > 100 | > 100 | > 100 | > 100 | > 100 | > 100 |  | > 100 | > 100 |  |  |  |  |  |  |  |  |  | 
16 | COc1cc(/C=C/c2ccc(OC)c(OC)c2OC)cc(OC)c1OC | 27.9 | 37.1 | 46.3 | 97.9 | 31.8 | > 87.1 | 74.4 |  | 77 | > 68 |  |  |  |  |  |  |  |  |  | 
17 | ClCc1ccc(C2OCCO2)cc1 | > 52.1 | 74.6 | > 56.2 | > 59 | 38.2 | 36.1 | > 63.9 |  | 34.3 | 12.5 |  |  |  |  |  |  |  |  |  | 
18 | COc1cc(C2c3cc4c(cc3[C@@H](OCCN(C)C)C3COC(=O)[C@H]23)OCO4)cc(OC)c1O (some centres not stated) | 7.33 |  | 2.04 | > 22.3 | 1.55 | 2.17 | 4.26 |  | 3.22 | > 100 |  |  |  |  |  |  |  |  |  | 
19 | O=c1cc(-c2ccccn2)[nH]c2cc(F)ccc12 | > 100 | > 100 | > 100 | > 100 | > 100 | > 100 | > 100 |  | > 100 | > 100 |  |  |  |  |  |  |  |  |  | 
20 | COc1cc2c3c(ncc2c(OC)c1OC)-c1cc2c(cc1C3)OCO2 | 36.5 | > 100 | 68 | 55.6 | > 100 |  | > 100 |  | > 100 | 4.26 | 22.1 | 19.8 | > 100 | 0.0288 | 26.1 | 61.1 |  | 58.5 |  | 33.4
